Laboratory results taken from ChEMBL document CHEMBL1122712, “[(E)-1-[123I]Iodo-1-penten-5-yl]triphenylphosphonium iodide: convenient preparation of a potentially useful myocardial perfusion agent” (J Med Chem, 1984).
Where “and” joins values, the source holds several entries; their conditions need not be identical. Equal entries are not always repeated.

Columns and labels:
Type in all cases: ADME, organism-based
Rattus norvegicus [1] = experiment: Distribution of radioactivity in the female rat lung tissues after intravenous administration after 3 days was determined; details: in vivo, 72 h
Rattus norvegicus [2] = experiment: Distribution of radioactivity in the female rat blood tissues after intravenous administration after 30 min was determined; details: in vivo, 0.5 h
Rattus norvegicus [3] = experiment: Distribution of radioactivity in the female rat liver tissues after intravenous administration after 60 min was determined; details: in vivo, 1 h
Rattus norvegicus [4] = experiment: Distribution of radioactivity in the female rat kidney tissues after intravenous administration after 5 min was determined; details: in vivo
Rattus norvegicus [5] = experiment: Distribution of radioactivity in the female rat kidney tissues after intravenous administration after 3h was determined; details: in vivo
Rattus norvegicus [6] = experiment: Distribution of radioactivity in the female rat blood tissues after intravenous administration after 3h was determined; details: in vivo
Rattus norvegicus [7] = experiment: Distribution of radioactivity in the female rat liver tissues after intravenous administration after 30 min was determined; details: in vivo, 0.5 h
Rattus norvegicus [8] = experiment: Distribution of radioactivity in the female rat lung tissues after intravenous administration after 60 min was determined; details: in vivo, 1 h
Rattus norvegicus [9] = experiment: Distribution of radioactivity in the female rat heart tissues after intravenous administration after 30 min was determined; details: in vivo, 0.5 h
Rattus norvegicus [10] = experiment: Distribution of radioactivity in the female rat heart tissues after intravenous administration after 1 day was determined; details: in vivo, 24 h
Rattus norvegicus [11] = experiment: Distribution of radioactivity in the female rat liver tissues after intravenous administration after 1 day was determined; details: in vivo, 24 h
Rattus norvegicus [12] = experiment: Distribution of radioactivity in the female rat liver tissues after intravenous administration after 3h was determined; details: in vivo
Rattus norvegicus [13] = experiment: Distribution of radioactivity in the female rat kidney tissues after intravenous administration after 1 day was determined; details: in vivo, 24 h
Rattus norvegicus [14] = experiment: Distribution of radioactivity in the female rat kidney tissues after intravenous administration after 3 days was determined; details: in vivo, 72 h
Rattus norvegicus [15] = experiment: Distribution of radioactivity in the female rat kidney tissues after intravenous administration after 60 min was determined; details: in vivo, 1 h
Rattus norvegicus [16] = experiment: Distribution of radioactivity in the female liver rat tissues after intravenous administration after 30 min was determined; details: in vivo, 0.5 h
Rattus norvegicus [17] = experiment: Distribution of radioactivity in the female rat heart tissues after intravenous administration after 60 min was determined; details: in vivo, 1 h
Rattus norvegicus [18] = experiment: Distribution of radioactivity in the female rat lung tissues after intravenous administration after 30 min was determined; details: in vivo, 0.5 h
Rattus norvegicus [19] = experiment: Distribution of radioactivity in the female heart rat tissues after intravenous administration after 3 days was determined; details: in vivo, 72 h
Rattus norvegicus [20] = experiment: Distribution of radioactivity in the female rat blood tissues after intravenous administration after 3 days was determined; details: in vivo, 72 h
Rattus norvegicus [21] = experiment: Distribution of radioactivity in the female rat blood tissues after intravenous administration after 1 day was determined; details: in vivo, 24 h
Rattus norvegicus [22] = experiment: Distribution of radioactivity in the female rat heart tissues after intravenous administration after 3 days was determined; details: in vivo, 72 h
Rattus norvegicus [23] = experiment: Distribution of radioactivity in the female rat blood tissues after intravenous administration after 60 min was determined; details: in vivo, 1 h
Rattus norvegicus [24] = experiment: Distribution of radioactivity in the female rat heart tissues after intravenous administration after 3h was determined; details: in vivo
Rattus norvegicus [25] = experiment: Distribution of radioactivity in the female rat heart tissues after intravenous administration after 5 min was determined; details: in vivo
Rattus norvegicus [26] = experiment: Distribution of radioactivity in the female rat blood tissues after intravenous administration after 5 min was determined; details: in vivo
Rattus norvegicus [27] = experiment: Distribution of radioactivity in the female rat lung tissues after intravenous administration after 1 day was determined; details: in vivo, 24 h
Rattus norvegicus [28] = experiment: Distribution of radioactivity in the female rat lung tissues after intravenous administration after 3h was determined; details: in vivo
Rattus norvegicus [29] = experiment: Distribution of radioactivity in the female rat kidney tissues after intravenous administration after 30 min was determined; details: in vivo, 0.5 h
Rattus norvegicus [30] = experiment: Distribution of radioactivity in the female rat lung tissues after intravenous administration after 5 min was determined; details: in vivo
Rattus norvegicus [31] = experiment: Distribution of radioactivity in the female rat liver tissues after intravenous administration after 3 days was determined; details: in vivo, 72 h

- Activity (Rattus norvegicus [1]): 0.102% and 0.91%
- Activity (Rattus norvegicus [2]): 1.59% and 0.15%
- Activity (Rattus norvegicus [3]): 2.64% and 0.25%
- Activity (Rattus norvegicus [4]): 13.72% and 7.08%
- Activity (Rattus norvegicus [5]): 4.38% and 2.75%
- Activity (Rattus norvegicus [6]): 0.96% and 0.08%
- Activity (Rattus norvegicus [7]): 0.75%
- Activity (Rattus norvegicus [8]): 0.75% and 0.65%
- Activity (Rattus norvegicus [9]): 1.6% and 2.31%
- Activity (Rattus norvegicus [10]): 1.18% and 1.58%
- Activity (Rattus norvegicus [11]): 0.18% and 0.02%
- Activity (Rattus norvegicus [12]): 0.74% and 0.09%
- Activity (Rattus norvegicus [13]): 0.79% and 0.46%
- Activity (Rattus norvegicus [14]): 0.22% and 0.15%
- Activity (Rattus norvegicus [15]): 7.95% and 5.06%
- Activity (Rattus norvegicus [16]): 5.59%
- Activity (Rattus norvegicus [17]): 1.83% and 2.59%
- Activity (Rattus norvegicus [18]): 0.79% and 0.64%
- Activity (Rattus norvegicus [19]): 0.64%
- Activity (Rattus norvegicus [20]): 0.093% and 0.009%
- Activity (Rattus norvegicus [21]): 0.2% and 0.01%
- Activity (Rattus norvegicus [22]): 1%
- Activity (Rattus norvegicus [23]): 1.14% and 0.11%
- Activity (Rattus norvegicus [24]): 1.54% and 2.21%
- Activity (Rattus norvegicus [25]): 1.49% and 2.38%
- Activity (Rattus norvegicus [26]): 1.58% and 0.14%
- Activity (Rattus norvegicus [27]): 0.19% and 0.17%
- Activity (Rattus norvegicus [28]): 0.61% and 0.49%
- Activity (Rattus norvegicus [29]): 13.11% and 8.91%
- Activity (Rattus norvegicus [30]): 0.89% and 0.75%
- Activity (Rattus norvegicus [31]): 0.13% and 0.019%
Structure (SMILES): I/C=C/CCC[P+](c1ccccc1)(c1ccccc1)c1ccccc1.[I-]
